# Data as given in patent US7037928B2, “Compositions of N-(methylethylaminocarbonyl)-4-(-3-methylphenylamino)-3-pyridylsulfonamide and cyclic oligosaccharides” (PLIVA, farmaceutska industrija, dionicko drustvo, priority 2000, dated 2006).
# Experiment: Release of torasemide (active substance) in water, USP 24
# Format: physicochemical
# Conditions: 37° C., 50 rpm, 1000 ml
# Method: The physical mixture of the modification I of torasemide and β-cyclodextrin prepared according to the Example 1 of the present invention was subjected to testing the release of the active substance in water at the temperature of 37° C.
# The inclusion complex of the modification I of torasemide and β-cyclodextrin to the Example 3 of the present invention was subjected to testing the release of the active substance in water at the temperature of 37° C.
compound,measurement,setting,value
"Cc1cccc(Nc2ccncc2S(=O)(=O)NC(=O)NC(C)C)c1 [Modification I of torasemide, N-(1-methylethylaminocarbonyl)-4-(3-methylphenylamino)-3-pyridylsulfonamide]",Released torasemide (%),time 0 min,0%
same,Released torasemide (%),time 15 min,0.7%
same,Released torasemide (%),time 30 min,20.3%
same,Released torasemide (%),time 45 min,38.5%
same,Released torasemide (%),time 60 min,51.8%
same,Released torasemide (%),time 90 min,68.5%
same,Released torasemide (%),time 120 min,78.7%
